# From patent US11179383B2 (Gilead Sciences, Inc., priority 2018, dated 2021)
# pEC50: −log10 of the molar value.
# Biological target: T1, α4β7 integrin (Homo sapiens, UniProt P13612+P26010)
# T1 construct: monitoring the capture of α4β7 integrin expressing cells on a recombinant MadCAM-1 extracellular domain-coated plate; endogenous in cells; host or cells: RPMI8866 cells
# T1 sequence (P13612 34-1032): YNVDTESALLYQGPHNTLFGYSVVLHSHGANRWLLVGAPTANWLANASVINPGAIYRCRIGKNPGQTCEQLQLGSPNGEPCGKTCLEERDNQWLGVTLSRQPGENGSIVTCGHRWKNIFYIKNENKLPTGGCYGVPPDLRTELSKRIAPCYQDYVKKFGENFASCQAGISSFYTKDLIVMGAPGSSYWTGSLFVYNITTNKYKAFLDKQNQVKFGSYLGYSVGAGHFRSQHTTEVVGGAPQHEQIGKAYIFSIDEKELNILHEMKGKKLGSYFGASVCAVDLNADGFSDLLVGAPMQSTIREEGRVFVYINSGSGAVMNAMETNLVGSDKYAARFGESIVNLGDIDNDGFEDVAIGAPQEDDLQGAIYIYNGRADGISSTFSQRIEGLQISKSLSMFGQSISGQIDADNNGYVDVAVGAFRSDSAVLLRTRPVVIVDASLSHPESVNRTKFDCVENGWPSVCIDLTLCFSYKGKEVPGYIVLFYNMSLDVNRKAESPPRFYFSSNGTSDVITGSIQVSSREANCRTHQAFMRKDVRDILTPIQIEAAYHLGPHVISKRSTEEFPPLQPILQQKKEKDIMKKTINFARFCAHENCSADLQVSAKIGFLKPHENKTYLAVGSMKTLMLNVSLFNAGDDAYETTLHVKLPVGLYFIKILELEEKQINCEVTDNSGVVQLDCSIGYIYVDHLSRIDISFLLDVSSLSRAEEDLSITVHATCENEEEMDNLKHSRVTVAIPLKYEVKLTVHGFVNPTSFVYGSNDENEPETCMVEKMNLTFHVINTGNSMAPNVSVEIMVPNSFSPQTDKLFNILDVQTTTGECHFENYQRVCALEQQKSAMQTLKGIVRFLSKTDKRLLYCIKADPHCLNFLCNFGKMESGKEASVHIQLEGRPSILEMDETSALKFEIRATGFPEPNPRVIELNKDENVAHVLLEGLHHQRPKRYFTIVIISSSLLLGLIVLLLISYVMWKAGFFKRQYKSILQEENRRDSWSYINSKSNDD
# T1 sequence (P26010 20-798): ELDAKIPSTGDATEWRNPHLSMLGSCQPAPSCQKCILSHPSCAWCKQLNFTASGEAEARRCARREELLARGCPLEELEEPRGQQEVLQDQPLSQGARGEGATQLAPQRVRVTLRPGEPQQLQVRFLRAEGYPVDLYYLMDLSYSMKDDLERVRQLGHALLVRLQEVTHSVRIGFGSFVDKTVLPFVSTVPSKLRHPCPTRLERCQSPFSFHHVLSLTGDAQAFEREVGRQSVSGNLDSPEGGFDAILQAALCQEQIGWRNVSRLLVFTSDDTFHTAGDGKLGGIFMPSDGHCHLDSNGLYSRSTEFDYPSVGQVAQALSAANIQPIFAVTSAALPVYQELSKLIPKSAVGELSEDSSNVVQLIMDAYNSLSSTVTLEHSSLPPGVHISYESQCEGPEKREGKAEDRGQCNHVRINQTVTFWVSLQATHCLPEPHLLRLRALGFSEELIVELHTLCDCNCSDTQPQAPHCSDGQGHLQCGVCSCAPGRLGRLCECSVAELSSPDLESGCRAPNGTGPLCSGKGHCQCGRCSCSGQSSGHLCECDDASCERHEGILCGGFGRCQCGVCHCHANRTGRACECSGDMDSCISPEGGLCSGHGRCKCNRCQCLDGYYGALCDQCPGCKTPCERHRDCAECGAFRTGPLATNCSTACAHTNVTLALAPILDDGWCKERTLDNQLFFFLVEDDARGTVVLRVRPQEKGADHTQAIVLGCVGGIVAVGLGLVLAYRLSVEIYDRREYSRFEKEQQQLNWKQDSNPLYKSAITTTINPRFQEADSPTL
# Assay: α4β7 Integrin Cell Capture Assay
# Assay type: cell-based
# Conditions: capture of α4β7 integrin expressing RPMI8866 cells on recombinant MadCAM-1 extracellular domain-coated plate; DMEM+0.5% FBS+0.5 mM MnCl2; read-out: EC50 α4β7
# Method: α4β7 Integrin Cell Capture Assay
# The potency of inhibitors in preventing α4β7 integrin interaction with MadCAM-1 was measured by monitoring the capture of α4β7 integrin expressing cells on a recombinant MadCAM-1 extracellular domain-coated plate.
# 384-Well plates (Corning 3702) were coated with MadCAM-1 extracellular domain by dispensing 20 μL of MAdCAM-1 at 1.0 μg/mL per well and incubating overnight at 4° C. The plates were then washed with PBS and blocked with 3% BSA for 2 hours before being washed again.
# RPMI8866 cells were spun down and re-suspended in assay medium (DMEM+0.5% FBS+0.5 mM MnCl2) at a density of 0.5×10^6 cells/mL. The cells were then dispensed (60 μL/well) to a 384-well plate (Greiner 781280) that was previously spotted with 60 nL of test compound per well. The plates were incubated at 37° C. for 1 hour. 50 μL of cells were transferred to the blocked, MadCAM-1-coated plates and incubated for 30 minutes at 37° C. 10 μL of 12% glutaraldehyde containing Hoechst 33342 (0.06 mg/mL) was added to the cells (2% glutaraldehyde and 0.01 mg/mL final concentrations). The plates were incubated for 90 minutes at room temperature. The plates were then washed 3 times with 70 μL of PBS per well and imaged on a Cellomics ArrayScan instrument. The cells that were bound to the plate were counted and plotted against the compound concentration to determine the EC50 of the test compounds.
row,Structure (SMILES),pEC50
1,"CC[C@@H](Nc1cc(F)c(C(=O)N[C@@H](Cc2ccc(-c3c(C)cc(C)n(C)c3=O)c3ccccc23)C(=O)O)c(F)c1)C(F)(F)F (single isomer, unassigned) [Example 133]",9.30
2,"CC[C@@H](Nc1cc(F)c(C(=O)N[C@@H](Cc2ccc(-c3c(C(F)(F)F)cc(C)n(C)c3=O)c3ccccc23)C(=O)O)c(F)c1)C(F)(F)F (single isomer, unassigned) [Example 134]",8.08
3,"CC[C@@H](Nc1cc(F)c(C(=O)N[C@@H](Cc2ccc(-c3c(C(F)(F)F)cc(C)n(C)c3=O)c3ccccc23)C(=O)O)c(F)c1)C(F)(F)F (single isomer, unassigned) [Example 135]",9.00
4,"CC[C@@H](Nc1cc(F)c(C(=O)N[C@@H](Cc2ccc(-c3c(OC)cnn(C)c3=O)c3ccccc23)C(=O)O)c(F)c1)C(F)(F)F (single isomer, unassigned) [Example 136]",9.10
5,"CC[C@@H](Nc1cc(F)c(C(=O)N[C@@H](Cc2ccc(-c3c(OC)cnn(C)c3=O)c3ccccc23)C(=O)O)c(F)c1)C(F)(F)F (single isomer, unassigned) [Example 137]",9.05
6,"O=C(N[C@@H](Cc1ccc(-c2c(Cl)cc(F)cc2Cl)c2cccnc12)C(=O)O)c1c(F)cccc1F [Example 1, (S)-3-(5-(2,6-dichloro-4-fluorophenyl)quinolin-8-yl)-2-(2,6-difluorobenzamido)propanoic acid]",6.68
7,"COc1cccc(F)c1C(=O)N[C@@H](Cc1ccc(-c2c(Cl)cc(F)cc2Cl)c2cccnc12)C(=O)O [Example 2, (S)-3-(5-(2,6-dichloro-4-fluorophenyl)quinolin-8-yl)-2-(2-fluoro-6-methoxybenzamido)propanoic acid]",6.38
8,"O=C(N[C@@H](Cc1ccc(-c2c(Cl)cc(F)cc2Cl)c2cccnc12)C(=O)O)c1c(F)cc(N[C@H](c2ccccc2)C(F)(F)F)cc1F [Example 3, (S)-3-(5-(2,6-dichloro-4-fluorophenyl)quinolin-8-yl)-2-(2,6-difluoro-4-(((R)-2,2,2-trifluoro-1-phenylethyl)amino)benzamido)propanoic acid]",6.41
9,"CS(=O)(=O)Nc1cc(F)c(C(=O)N[C@@H](Cc2ccc(-c3c(Cl)cc(F)cc3Cl)c3cccnc23)C(=O)O)c(F)c1 [Example 4, (S)-3-(5-(2,6-dichloro-4-fluorophenyl)quinolin-8-yl)-2-(2,6-difluoro-4-(methylsulfonamido)benzamido)propanoic acid]",7.59
10,"O=C(N[C@@H](Cc1ccc(-c2c(Cl)cc(F)cc2Cl)c2cccnc12)C(=O)O)c1c(Cl)cccc1Cl [Example 7, (S)-3-(5-(2,6-dichloro-4-fluorophenyl)quinolin-8-yl)-2-(2,6-dichlorobenzamido)propanoic acid]",6.28
11,"Cc1c(-c2ccc(C[C@H](NC(=O)c3c(Cl)cccc3Cl)C(=O)O)c3ncccc23)c(=O)n(C)c2ccc(F)cc12 [Example 10, (S)-2-(2,6-dichlorobenzamido)-3-(6-fluoro-1,4-dimethyl-2-oxo-1,2-dihydro-[3,5′-biquinolin]-8′-yl)propanoic acid]",8.96
12,"COc1cc(F)cnc1-c1ccc(C[C@H](NC(=O)c2c(Cl)cccc2Cl)C(=O)O)c2ncccc12 [Example 13, (S)-2-(2,6-dichlorobenzamido)-3-(5-(5-fluoro-3-methoxypyridin-2-yl)quinolin-8-yl)propanoic acid]",7.17
13,"O=C(N[C@@H](Cc1ccc(-c2cccc3scnc23)c2cccnc12)C(=O)O)c1c(Cl)cccc1Cl [Example 14, (S)-3-(5-(benzo[d]thiazol-4-yl)quinolin-8-yl)-2-(2,6-dichlorobenzamido) propanoic acid]",7.24
14,"O=C(N[C@@H](Cc1ccc(-c2nccnc2C(F)(F)F)c2cccnc12)C(=O)O)c1c(Cl)cccc1Cl [Example 15, (S)-2-(2,6-dichlorobenzamido)-3-(5-(3-(trifluoromethyl)pyrazin-2-yl)quinolin-8-yl)propanoic acid]",7.07
15,"Cc1cc(C(F)(F)F)c(-c2ccc(C[C@H](NC(=O)c3c(Cl)cccc3Cl)C(=O)O)c3ncccc23)nn1 [Example 16, (S)-2-(2,6-dichlorobenzamido)-3-(5-(6-methyl-4-(trifluoromethyl)pyridazin-3-yl)quinolin-8-yl)propanoic acid]",6.84
16,"Cn1cc(-c2ccc(C[C@H](NC(=O)c3c(Cl)cccc3Cl)C(=O)O)c3ncccc23)c(C(F)(F)F)n1 [Example 17, (S)-2-(2,6-dichlorobenzamido)-3-(5-(1-methyl-3-(trifluoromethyl)-1H-pyrazol-4-yl)quinolin-8-yl)propanoic acid]",6.45

# The remaining lines, values ahead:
row,pEC50,Structure (SMILES)
1,7.46,"CCOCc1cc(OC)c(-c2ccc(C[C@@H](NC(=O)c3c(F)cc(NS(=O)(=O)c4ccc(-c5ccnc(F)c5)cc4)cc3F)C(=O)O)c3c2cnn3C)c(OC)c1 (single isomer, unassigned) [Example 145]"
2,9.40,"CCOCc1cc(OC)c(-c2ccc(C[C@H](NC(=O)c3c(F)cc(NS(=O)(=O)c4ccc(-c5ccnc(F)c5)cc4)cc3F)C(=O)O)c3cnn(C)c23)c(OC)c1 (single isomer, unassigned) [Example 147]"
3,8.44,"CCOCc1cc(OC)c(-c2ccc(C[C@@H](NC(=O)c3c(F)cc(NS(=O)(=O)c4ccc(-c5ccnc(F)c5)cc4)cc3F)C(=O)O)c3cnn(C)c23)c(OC)c1 (single isomer, unassigned) [Example 148]"
4,9.30,"CCOCc1cc(OC)c(-c2ccc(C[C@H](NC(=O)c3c(F)cc(NS(=O)(=O)c4ccc(-c5ccnc(F)c5)cc4)cc3F)C(=O)O)c3ccncc23)c(OC)c1 (single isomer, unassigned) [Example 161]"
5,8.77,"CCOCc1cc(OC)c(-c2ccc(C[C@@H](NC(=O)c3c(F)cc(NS(=O)(=O)c4ccc(-c5ccnc(F)c5)cc4)cc3F)C(=O)O)c3ccncc23)c(OC)c1 (single isomer, unassigned) [Example 162]"
6,8.89,"COc1cccc(OC)c1-c1ccc(C[C@H](NC(=O)c2c(F)cc(NS(=O)(=O)c3ccc(-n4cncn4)cc3)cc2F)C(=O)O)c2ccncc12 (single isomer, unassigned) [Example 164]"
7,7.42,"COc1cccc(OC)c1-c1ccc(C[C@@H](NC(=O)c2c(F)cc(NS(=O)(=O)c3ccc(-n4cncn4)cc3)cc2F)C(=O)O)c2ccncc12 (single isomer, unassigned) [Example 165]"
